The METLIN SMRT retention time set (Domingo-Almenara et al. 2019)

Assay: gradient 5% acetonitrile 3 min, to 50% in 2 min, to 85% in 15 min, held 3 min, 100 µL/min
Conditions: column: Zorbax Extend-C18 2.1 x 50 mm; eluents: water / acetonitrile, 0.1% formic acid
Outline: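 Pure standards were run in mixtures of ~100 molecules by HPLC coupled to a quadrupole time-of-flight mass spectrometer. The column was a Zorbax Extend-C18 (2.1 × 50 mm, 1.8 μm) at 100 μL/min, with water and acetonitrile each containing 0.1% formic acid, in positive and negative ionization mode. Dead and dwell volumes were 40 μL and 900 μL. Retention time was taken from computationally picked adduct peaks, each manually inspected, with data collected over 3 months.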

Row | RP-LC retention time [s] | SMILES
1 | 873 | CSc1ccc(NC(=O)NC2CCN(c3ccc(F)c(C)c3)C2=O)cc1 (stereo not drawn)
2 | 849 | O=C(CCCc1ccccc1)Nc1cnn(-c2ncc(N3CCCC3)cn2)c1
3 | 1200 | Cc1ccc(C)c(S(=O)(=O)N2CCc3nc(-c4ccc(F)cc4)ncc3C2)c1
4 | 1120 | O=S(=O)(Nc1ccc(-c2noc(COc3ccc(Cl)cc3)n2)cc1)c1cccs1
5 | 748 | CCOCN(C(=O)Cn1c(C(C)O)nc2ccccc21)c1c(C)cccc1CC (stereo not drawn)
6 | 1210 | O=C(Nc1ccc(Cl)cc1)c1cc2c(cc1O)[nH]c1ccccc12
7 | 690 | O=C(O)c1cn(Cc2ccccn2)nc1S(=O)(=O)N1CCc2ccccc2C1
8 | 621 | O=C(c1cc2c(s1)CCC(C(=O)N1CCN(c3ccccn3)CC1)C2)N1CCCCC1 (stereo not drawn)
9 | 574 | COC[C@@H]1CN(C(=O)c2ccoc2C)C[C@H]1c1nc(C2CC2)no1
10 | 591 | Cc1ccc2c(Nc3ccc4c(c3)OCO4)c(C(=O)N3CCCC3)cnc2n1
11 | 1050 | Cc1ccc(NC(=O)N2CCCC2c2nc(-c3ccc(F)cc3F)no2)c(C)c1 (stereo not drawn)
12 | 971 | CC(C)c1ccc(C(=O)N2CCc3c(c(-c4nc(C5CC5)no4)nn3C)C2)cc1
13 | 1310 | Cc1nc2cc(-c3noc(C(C)Oc4ccccc4)n3)ccc2n(C2CCCC2)c1=O (stereo not drawn)
14 | 986 | Cn1cc2c3c(cccc31)CN(C(=O)Cc1ccc(Cl)cc1)CC2
15 | 1310 | Cc1cccc(-c2nc(Cn3nnc(C(=O)NCc4ccc(C(C)C)cc4)c3C)c(C)o2)c1
16 | 814 | CCC1Oc2ccc(S(=O)(=O)N3CCC(C(=O)Nc4ccccc4C)CC3)cc2NC1=O (stereo not drawn)
17 | 567 | O=C(NCCc1ccccc1)C(=O)NCc1cccnc1
18 | 594 | CN1CCN(C(=O)c2nnc(-c3ccc(S(=O)(=O)N4CCCC4)cc3)o2)CC1
19 | 960 | CCOC(=O)Cc1csc2nc(-c3ccccc3)nn12
20 | 873 | Cc1oc2ccn(Cc3ccc(F)cc3)c(=O)c2c1C(=O)O
21 | 678 | COCCNC(=O)C1CCN(C(=O)Nc2ccc(NC(=O)Nc3ccccc3)cc2)CC1
22 | 1030 | COc1ccc(OC)c(NC(=O)c2sc(-c3cn(C(C)C)c4ncccc34)nc2C)c1
23 | 723 | CCCNC(=O)C1CCN(c2ccc(SCC(=O)Nc3cccc(C(F)(F)F)c3)nn2)CC1
24 | 861 | C=CCNC(=O)NC1CCN(C2=NS(=O)(=O)C(c3cccc(Cl)c3)=C2C)CC1
25 | 947 | CCOc1ccc2nc(C(=O)NCc3ccccc3Br)cn2n1
26 | 623 | Cc1cccc(NC(=O)N2CCN(c3cc(C)nc(N4CCOCC4)n3)CC2)c1

Row | RP-LC retention time [s] | SMILES
27 | 635 | COc1cc(CC(=O)N2CCN(c3cc(C(C)C)n4cnnc4n3)CC2)cc(OC)c1
28 | 789 | N#Cc1nc(-c2cccs2)oc1N1CCN(C(=O)c2ccco2)CC1
29 | 647 | Cc1sc2ccn(C)c(=O)c2c1C(=O)NCc1ccc(N2CCOCC2)cc1
30 | 831 | CCn1c(=O)c(N2CCC(NC(=O)NC3CCCCC3)CC2)nc2ccccc21
31 | 780 | O=C(NC1CCCC1)C1CCN(C(=O)c2ncn3c2COC(c2ccc(Cl)cc2)C3)CC1 (stereo not drawn)
32 | 900 | COc1ccccc1NC(=O)Cn1nc2c(Oc3cccc(Cl)c3)nccn2c1=O
33 | 789 | O=C(Cc1ccc(F)cc1)Nc1nnc(C2CC(=O)N(c3ccc(Cl)cc3)C2)o1 (stereo not drawn)
34 | 682 | O=C(c1cccnc1)N1CCC2(CC1)N=C(c1ccc(Cl)cc1)NO2
35 | 631 | CCN(CC)CCNC(=O)CSCc1ccc(C)cc1
36 | 591 | O=C(CN1CC=C(c2cnn(-c3ccccc3)c2)CC1)N1CCN(Cc2ccc3c(c2)OCO3)CC1
37 | 1140 | CCn1nnc2ccc(-c3noc(-c4ccc(C)cc4)n3)cc21
38 | 827 | O=C(COc1ccc2c(c1)C(=O)CC2)NCCC1=CCCCC1
39 | 603 | COCC(=O)Nc1ccc(N2CCN(C3CCCCC3)CC2)cc1C(=O)O
40 | 652 | COc1ccc(C2C(C(=O)NCC3CCCO3)c3cc(OC)c(OC)cc3C(=O)N2C)cc1OC (stereo not drawn)
41 | 1070 | CCCCOC(=O)c1ccc(Nc2nc(C(=O)OCC)nc3ccccc23)cc1
42 | 607 | CN(C)c1ccc(CNC(=O)C2CCN(S(=O)(=O)c3ccc4c(c3)CCCC(=O)N4)CC2)cc1
43 | 630 | C=CCNC(=O)C1COc2ccccc2O1 (stereo not drawn)
44 | 797 | COc1ccc(NC(=O)Cn2c(=O)c3cc(-c4ccco4)nn3c3ncccc32)c(OC)c1
45 | 579 | COc1cccc2c(NC(=O)c3ccccc3F)cc(C)nc12
46 | 943 | CC(C)c1ccc(OCC(=O)Nc2nnc(C3CC(=O)N(c4ccc(Cl)cc4)C3)o2)cc1 (stereo not drawn)
47 | 704 | O=C(CN1C(=O)CC(c2ccccc2)S(=O)(=O)c2ccccc21)N1CCOCC1 (stereo not drawn)
48 | 888 | O=C(Nc1cnc(-c2ccc(C(F)(F)F)cc2)nc1)C1CCOC1 (stereo not drawn)
49 | 982 | O=c1c2nnn(Cc3ccc(Cl)cc3)c2ncn1Cc1nc(-c2ccc3c(c2)OCO3)no1
50 | 949 | COc1cc(-c2ccc(SCC(=O)c3ccc(C)cc3)nn2)cc(OC)c1OC
51 | 881 | Cc1ccc(-c2nnc(N3CCC(C(=O)NCCC(C)C)CC3)o2)cc1
52 | 598 | CC(C)(NC(=O)c1cnccn1)c1nc2c(c(C(N)=O)n1)OCO2

Continued, molecule first:

Row | SMILES | RP-LC retention time [s]
53 | O=C(c1cn2cc(Cl)ccc2n1)N1CCN(c2ccccc2F)CC1 | 833
54 | CCOc1cc(-c2noc(-c3ncn4c3COC(c3ccc(OC)cc3)C4)n2)ccc1OC (stereo not drawn) | 992
55 | Cc1cc(Cl)ccc1NC(=O)Cn1cccc1-c1nnc(C2CC2)o1 | 904
56 | COCCn1nc2n(c1=O)CCC1(CC2)CCN(C(=O)C2CCCO2)CC1 (stereo not drawn) | 600
57 | Cc1cccnc1NC(=O)C1CCN(S(=O)(=O)c2cc(C(=O)N3CCCCCC3)cs2)CC1 | 675
58 | Cc1nn(CC(=O)N2CCc3ccccc3C2)c(=O)c2nn(-c3ccccc3)c(C)c12 | 820
59 | CN1CCCc2cc(C(CNC(=O)C(=O)Nc3ccc4c(c3)OCCO4)N3CCCCC3)ccc21 (stereo not drawn) | 742
60 | CCCN1C(=O)c2cc(C(=O)NCCc3ccccc3)nn2CC1(C)C(=O)NC1CCCC1 (stereo not drawn) | 864
61 | O=C([C@@H]1C[C@H](F)CN1C(=O)NCc1ccc(OC(F)(F)F)cc1)N1CCCCC1 | 809
62 | COc1ccc(C2(C(=O)N3CCC([C@H]4[C@@H](OC)C(=O)N4C(C)C)CC3)CC2)cc1 | 776
63 | COC(=O)c1ccc2c(=O)n(-c3ccc4c(c3)OCO4)c(N3CCOCC3)nc2c1 | 875
64 | COc1cccc(-n2c(=O)c(C(=O)Nc3cc(F)cc(F)c3)c(O)c3cccnc32)c1 | 1210
65 | COCc1cn(C2CN(C(=O)Cc3c[nH]c4ccccc34)C2)nn1 | 634
66 | CCN(CC)S(=O)(=O)c1ccc2c(c1)N(CC(=O)NCc1ccc(C)o1)C(=O)C1CCCCN21 (stereo not drawn) | 959
67 | CCC1CN2C=Nc3oc(C)c(C(=O)Nc4cccc(Cl)c4)c3C2=N1 (stereo not drawn) | 695
68 | O=C1[C@H]2CN(Cc3ccc(F)cc3Cl)C[C@H]2C(=O)N1Cc1ccc2c(c1)OCO2 | 992
69 | O=C(Cn1nc(N2CCCC2)c2ccccc2c1=O)Nc1ccc2c(c1)OCO2 | 854
70 | O=C(NCCCn1nc(-c2ccc(F)cc2)ccc1=O)Nc1cc(Cl)ccc1Cl | 566

Row | SMILES | RP-LC retention time [s]
71 | COc1cccc(Cn2cc(S(=O)(=O)N3CCCCC3)ccc2=O)c1 | 882
72 | O=C(Cn1nc2n(c1=O)CCCCC2)Nc1cccc(Cl)c1 | 730
73 | CCOC(=O)c1cc(C)nc2c1c(=O)n(Cc1ccc(F)cc1)c(=O)n2C | 1070
74 | CN(CC1CCOCC1)C(=O)Nc1cccc(F)c1 | 720
75 | COc1ccccc1-c1noc(C2CCCN2C(=O)c2ccsc2)n1 (stereo not drawn) | 802
76 | CCCn1cc(CCNS(=O)(=O)c2ccc3c(c2)CCC3)c2cccnc21 | 938
77 | COc1ccc(-c2csc(C)n2)cc1S(=O)(=O)N1CCN(c2ccccc2)CC1 | 1060
78 | CC(C)(C)CC(=O)N1CCCC(c2nc(CNC(=O)C3CCC3)cs2)C1 (stereo not drawn) | 774
79 | O=C(c1ccc(CN2C(=O)CSc3ncccc32)cc1)N1CCN(c2ccccn2)CC1 | 710
80 | COC(=O)c1nc(NC(=O)Cn2nc3c(cc2=O)CCCCC3)sc1C | 778
81 | COCC(C)NS(=O)(=O)c1c(C)[nH]c(=O)[nH]c1=O (stereo not drawn) | 570
82 | Cn1cc2c3c(cccc31)CN(C(=O)c1cccs1)CC2 | 876
83 | O=C1CCCc2cc(S(=O)(=O)N3CCC(C(=O)Nc4cccc(Cl)c4)CC3)ccc2N1 | 826
84 | CCCN(CC1CCOC1)C(=O)Nc1ccc(C)c(Cl)c1 (stereo not drawn) | 959
85 | CCCn1c(=O)sc2cc(S(=O)(=O)N3CCC(C(=O)Nc4cc(C)ccn4)CC3)ccc21 | 844
86 | Cc1cc(C)c(S(=O)(=O)Nc2ccc(-c3cn4ccccc4n3)cc2)cc1C | 719
87 | O=C(Cn1cccc(-c2nc(-c3ccc(F)cc3)no2)c1=O)N1CCCC1 | 727
88 | Cc1nn(C(=O)C2CC2)c(C)c1Sc1ccccc1[N+](=O)[O-] | 1110
